Data on 2 compounds can be found in US10344004B2, “Inhibitor of the mutated isocitrate dehydrogenase IDH1 R132H” (Bayer Pharma Aktiengesellschaft, priority 2015, dated 2019).

A short description of the data set: Relative oral bioavailability (FRel experiment) in Wistar rats. The format is in vivo. The method, then: The relative bioavailability was determined by studies in Wistar rats.
Compound A was firstly administered orally in the form of a solution. For this purpose, the active ingredient was dissolved in a mixture of 80% polyethylene glycol having an average molecular weight of 400 (PEG400) and 20% water. The active ingredient solution is the reference point for determining the relative bioavailability (formulation A1).
Compound A was also administered orally in the form of a tylose suspension (formulation A2).
Compound B was likewise administered orally in the form of a tylose suspension (formulation B).
To prepare a 0.5% aqueous tylose suspension (w/v), tylose was stirred and swelled for about 12 hours in pure water, whereupon a viscous mixture was formed. Compound A and compound B were each ground into the viscous mixture, whereupon the corresponding tylose suspensions were formed (formulation A2 and formulation B).
FIGS. 1a, 1b and 1c show the plasma concentrations of the active ingredient 3-(2-{[4-(trifluoromethoxy)phenyl]amino}-1-[(1R,5R)-3,3,5-trimethylcyclohexyl]-1H-benzimidazol-5-yl)propanoic acid (active ingredient API) after oral administration of compound A in the form of a solution (formulation A1, FIG. 1a), after oral administration of compound A in the form of a suspension (formulation A2, FIG. 1b) and after oral administration of compound B in the form of a suspension (formulation B, FIG. 1c).
For formulation A1, 5 mL/kg body weight were administered. This corresponded to an amount of active ingredient API of 10 mg/kg.
For formulation A2, 5 mL/kg body weight were administered. This corresponded to an amount of active ingredient API of 10 mg/kg.
For formulation B, 2 mL/kg body weight were administered. […]
Plasma concentrations were determined by collecting about 0.4 mL of blood in each case via an indwelling venous catheter. […] The plasma samples were analyzed by LC/MS/MS with respect to the active ingredient 3-(2-{[4-(trifluoromethoxy)phenyl]amino}-1-[(1R,5R)-3,3,5-trimethylcyclohexyl]-1H-benzimidazol-5-yl)propanoic acid.

What is called bioavailability is dose-corrected exposure relative to a reference, in per cent. High values mean much systemic uptake, low ones little systemic uptake. Compound `C[C@H]1C[C@@H](n2c(Nc3ccc(OC(F)(F)F)cc3)nc3cc(CCC(=O)O)ccc32)CC(C)(C)C1` [Compound A, 3-(2-{[4-(trifluoromethoxy)phenyl]amino}-1-[(1R,5R)-3,3,5-trimethylcyclohexyl]-1H-benzimidazol-5-yl)propanoic acid] showed a bioavailability (rat, plasma, tylose suspension (formulation A2), 10 mg/kg API, relative to PEG400/water solution (formulation A1)) of 25%.

For “(2E)-but-2-enedioic acid-3-(2-{[4-(trifluoromethoxy)phenyl]amino}-1-[(1R,5R)-3,3,5-trimethylcyclohexyl]-1H-benzimidazol-5-yl)propanoic acid (1:4) [Compound B]”, the “bioavailability in the FRel experiment” value (tylose suspension (formulation B), 10.6 mg/kg API, relative to PEG400/water solution of compound A (formulation A1)) turned out to be 110%. Moreover, where the note is “tylose suspensions, comparison in words”, the “bioavailability compared with the pure free acid” value is “distinctly higher bioavailability”.
